Test results taken from patent US8017585B2, “CXCR4 antagonist and use thereof” (priority 2002, dated 2011).
Bridge positions count the residues as written; N and C are the ends. Square brackets hold non-standard residues; d marks the D form. Peptide text beside a SMILES is read from it. * marks the point of attachment. 2Nal = N[C@@H](Cc1ccc2ccccc2c1)C(=O)O; Benzoyl(4-F) = O=C(c1ccc(F)cc1)*; Cit = NC(=O)NCCC[C@H](N)C(=O)O

Columns and labels:
CXCR4 receptor = target: T1, CXCR4 receptor (Homo sapiens, UniProt P61073); assay: Inhibition of 125I-CXCL12 binding to CXCR4 receptor on Jurkat cells; conditions: Table 1, 125I-CXCL12, 1 hour at room temperature, compounds as acetate salt, read-out: IC50 (nM), inhibitory activity against CXCL12 binding to CXCR4 receptor
T1 construct: 50 μL of Jurkat human T-cell leukemia cells (6×10^6 cells/mL) suspended in buffer; endogenous in cells; host or cells: Jurkat human T-cell leukemia cells
Description: After reaction, suction was made toward the reaction solution by 96 well GF/C filter plate, and each well's radioactivity was measured by top count. As the radioactivity index of 100% when the test compound was not added, and 0% when 100 nM of non-radioisotope-labeled CXCL12 was added, the inhibitory activity of each test compound was measured.

[1] = test system: human breast cancer MDA-MB-231 cells; assay: Inhibition of CXCL12-induced breast cancer cell migration (Transwell); type: cell-based; conditions: 10 nM of the antagonist; 100 nM CXCL12; 15 hours
Description: Transwell filter (polycarbonate filter, 8 μm diameter, Costar Company) was treated at 37° C. for 6 hours in 10 μg/mL fibronectin solution and air-dried. 100 nM of CXCL12 (R&D System Company) and 600 μL/well of buffer-A (0.1% bovine serum albumin, DMEM (GibcoBRL) containing 12 mM HEPES) containing the test compound were added to the lower chamber of the Transwell. The test compound and human breast cancer MDA-MB-231 cells (purchased from American Tissue Culture Collection), and 100 μL/well of buffer A containing 2×10^6 cells/mL were added to the upper chamber. […] Cutting off the filter part, adding 0.1 M sodium citrate/50% ethanol solution, and eluting crystal violet absorption at 550 nm was measured. […]
After 15 hours' incubation at 37° C. in 5% CO2 incubator, the upper surface of the filter was wiped and the cell was removed, and then the cell on the lower surface of the filter was fixed and stained with 25% methanol solution containing 0.5% crystal violet (Wako Pure Chemical Ind.), washed by distilled water and air-dried. Cutting off the filter part, adding 0.1 M sodium citrate/50% ethanol solution, and eluting crystal violet absorption at 550 nm was measured. […]

[2] = test system: Jurkat human T lymphocyte cell lines; conditions: read-out: IC50 value, inhibition of SDF-1α-induced Jurkat cell migration; SDF-1α 1 ng/mL; 4 hours
Description: RPMI-1640 and fetal calf serum (FCS) was purchased from BioWhittaker, penicillin-streptomycin solution, RPMI-1640 (without phenol red) and HEPES from Invitrogen, BSA from Sigma, and, human SDF-1α (CXCL12) from Genzyme. Jurkat human T lymphocyte cell lines were purchased from ATCC and incubated in RPMI-1640 10% FCS.
Using 24-wells Transwell (Costar, polycarbonate membrane, pore size 5 μm), migrating reaction was performed. 600 μL of SDF-1α (final concentration 1 ng/mL) was added to the lower layer of Transwell, 5×10^5 cells (200 μL) was added to the insert, and was reacted at 37° C. for 4 hours. The cells were pre-incubated with drugs at 37° C. for 30 minutes. The migrating reaction was made in RPMI-1640 culture media containing 20 mmol/L HEPES, 0.5% BSA. The cells migrated to the lower layer were recovered, and the number of the cells was counted by Coulter Counter. The inhibitory rate (%) against the migration by the drug of each concentration was calculated by the following formula, and IC50 value was calculated from such inhibitory rate.

mouse splenocytes = conditions: read-out: IC50 value, inhibition of SDF-1-induced migration of mouse splenocytes; SDF-1α 100 ng/mL; 2.5 hours
Description: Spleens were isolated from BALB/c mice (male, Charles River Japan, Inc.), converted to single cell suspensions, and splenocytes were prepared by crushing red blood cells.
SDF-1α (Peprotech, final concentration 100 ng/mL) was added to the lower layer of Transwell (pore size 5 μm), 1×10^6/well of the cells (100 μL) were added to the insert, and reacted at 37° C. for 2.5 hours. The cells were incubated with the drug at 37° C. for 30 minutes. Migrating reaction was made in the RPMI-1640 culture media containing 20 mmol/L HEPES, 0.5% BSA. The number of the cells migrated to the lower layer was counted by Coulter Counter. Similarly to the preceding clause, the inhibitory rate against the migration by the drug of each concentration and IC50 value were calculated.

T1 sequence (P61073 whole entry): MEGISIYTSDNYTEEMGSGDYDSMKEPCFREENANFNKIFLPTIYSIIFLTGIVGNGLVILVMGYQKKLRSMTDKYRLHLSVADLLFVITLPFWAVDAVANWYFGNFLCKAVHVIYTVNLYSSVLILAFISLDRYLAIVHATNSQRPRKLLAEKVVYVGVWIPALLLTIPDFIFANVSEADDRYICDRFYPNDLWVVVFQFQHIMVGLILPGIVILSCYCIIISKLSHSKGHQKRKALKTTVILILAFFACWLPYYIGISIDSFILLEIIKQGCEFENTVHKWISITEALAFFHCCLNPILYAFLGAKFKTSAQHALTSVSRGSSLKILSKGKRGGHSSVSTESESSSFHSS

SMILES: N=C(N)NCCC[C@H](NC(=O)[C@@H]1CSSC[C@H](NC(=O)[C@H](Cc2ccc3ccccc3c2)NC(=O)[C@H](CCCNC(=N)N)NC(=O)[C@H](CCCNC(=N)N)NC(=O)c2ccc(F)cc2)C(=O)N[C@@H](Cc2ccc(O)cc2)C(=O)N[C@@H](CCCNC(N)=O)C(=O)N[C@@H](CCCCN)C(=O)N[C@H](CCCCN)C(=O)N2CCC[C@H]2C(=O)N[C@@H](Cc2ccc(O)cc2)C(=O)N[C@@H](CCCNC(=N)N)C(=O)N[C@@H](CCCNC(N)=O)C(=O)N1)C(N)=O [4F-benzoyl-TN14003, 4F-benzoyl-Arg-Arg-Nal-Cys-Tyr-Cit-Lys-DLys-Pro-Tyr-Arg-Cit-Cys-Arg-NH2] ({Benzoyl(4-F)}-RR[2Nal]CY[Cit]K[dK]PYR[Cit]CR-NH2; disulfide 4-13)
- IC50 (CXCR4 receptor): 0.99 nM
- CXCL12-induced migration of MDA-MB-231 cells [1]: inhibited
- IC50 [2]: 0.65 nM
- IC50 (mouse splenocytes): 0.54 nM
